Like-named read-outs stand apart in the source and are kept apart here.
Target: hT2R8 (Homo sapiens (Human), UniProt Q9NYW2)
Experiment: hT2R8 antagonist high-throughput FLIPR assay, stable cell line with G16g44, agonist andrographolide
Assay type: cell-based
How it was run: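 Antagonist screen: compounds co-applied with agonist andrographolide at 200 μM, a dose giving 70–80% of maximal hT2R8 activation. Fluorescence measured by FLIPR in a stable HEK293 line expressing both hT2R8 and the promiscuous G16g44 protein.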

[1] = table after Example 12-37, read-out: hT2R8 IC50
[2] = read-out: IC50 on hT2R8 bitter receptor
[3] = table after Example 10-97, read-out: hT2R8 IC50
[4] = unit uM, read-out: IC50 on hT2R08 bitter receptor

Sequence of hT2R8 (Q9NYW2 whole entry): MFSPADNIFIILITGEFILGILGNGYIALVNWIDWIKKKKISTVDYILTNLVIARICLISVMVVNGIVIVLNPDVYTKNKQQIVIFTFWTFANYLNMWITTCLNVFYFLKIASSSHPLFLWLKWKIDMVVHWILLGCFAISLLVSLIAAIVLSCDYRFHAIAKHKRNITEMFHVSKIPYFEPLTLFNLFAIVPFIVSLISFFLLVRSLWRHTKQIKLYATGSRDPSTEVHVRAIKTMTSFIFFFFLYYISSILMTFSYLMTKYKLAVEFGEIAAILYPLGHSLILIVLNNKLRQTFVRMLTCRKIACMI

Row | IC50 (Table A, read-out: hT2R8 IC50) | IC50 [2] | IC50 [3] | Compound | further results
1 | – | 0.08 µM | – | Cc1noc(C)c1CN1C(=O)N(c2cnn(Cc3c(C)noc3C)c2)C(=O)C1(C)C [Example 12-21, 1-((3,5-dimethylisoxazol-4-yl)methyl)-3-(1-((3,5-dimethylisoxazol-4-yl)methyl)-1H-pyrazol-4-yl)-5,5-dimethylimidazolidine-2,4-dione] | –
2 | – | 0.22 µM | 0.793 µM | Cc1noc(C)c1Cn1cc(N2C(=O)NC(CCc3ccccc3)C2=O)cn1 (centres unmarked) [Example 10-45, 3-(1-((3,5-dimethylisoxazol-4-yl)methyl)-1H-pyrazol-4-yl)-5-phenethylimidazolidine-2,4-dione] | –
3 | – | 0.2 µM | 0.982 µM | Cc1noc(C)c1Cn1cc(N2C(=O)CN(CCc3cccc(Cl)c3)C2=O)cn1 [Example 10-82, 1-(3-chlorophenethyl)-3-(1-((3,5-dimethylisoxazol-4-yl)methyl)-1H-pyrazol-4-yl)imidazolidine-2,4-dione] | –
4 | – | 0.16 µM | – | Cc1noc(C)c1Cn1cc(N2C(=O)N(Cc3cc(C)n(C)n3)C(C)(C)C2=O)cn1 [Example 12-25, 1-((1,5-dimethyl-1H-pyrazol-3-yl)methyl)-3-(1-((3,5-dimethylisoxazol-4-yl)methyl)-1H-pyrazol-4-yl)-5,5-dimethylimidazolidine-2,4-dione] | –
5 | – | 0.25 µM | 0.248 µM | Cc1noc(C)c1Cn1cc(N2C(=O)CN(CCc3ccccc3Cl)C2=O)cn1 [Example 10-81, 1-(2-chlorophenethyl)-3-(1-((3,5-dimethylisoxazol-4-yl)methyl)-1H-pyrazol-4-yl)imidazolidine-2,4-dione] | –
6 | – | – | 0.131 µM | COCCOc1ccccc1CN1CC(=O)N(c2cnn(Cc3c(C)noc3C)c2)C1=O [Example 10-16, 3-(1-((3,5-dimethylisoxazol-4-yl)methyl)-1H-pyrazol-4-yl)-1-(2-(2-methoxyethoxy)benzyl)imidazolidine-2,4-dione] | IC50 [4]: 0.1 µM
7 | – | – | 0.06 µM | COc1ccccc1CN1CC(=O)N(c2cnn(Cc3c(C)noc3C)c2)C1=O [Example 10-18, 3-(1-((3,5-dimethylisoxazol-4-yl)methyl)-1H-pyrazol-4-yl)-1-(2-methoxybenzyl)imidazolidine-2,4-dione] | IC50 [4]: 0.06 µM
8 | – | – | 0.019 µM | Cc1cccc(CN2CC(=O)N(c3cnn(Cc4c(C)noc4C)c3)C2=O)c1 [Example 10-26, 3-(1-((3,5-dimethylisoxazol-4-yl)methyl)-1H-pyrazol-4-yl)-1-(3-methylbenzyl)imidazolidine-2,4-dione] | IC50 [4]: 0.02 µM
9 | – | 0.13 µM | 0.442 µM | Cc1noc(C)c1Cn1cc(N2C(=O)CN(CCc3ccccc3F)C2=O)cn1 [Example 10-83, 3-(1-((3,5-dimethylisoxazol-4-yl)methyl)-1H-pyrazol-4-yl)-1-(2-fluorophenethyl)imidazolidine-2,4-dione] | –
10 | – | 0.34 µM | – | Cc1noc(C)c1Cn1cc(N2C(=O)N/C(=C\c3ccccc3)C2=O)cn1 [Example 10-63, (Z)-5-benzylidene-3-(1-((3,5-dimethylisoxazol-4-yl)methyl)-1H-pyrazol-4-yl)imidazolidine-2,4-dione] | –
11 | – | 0.31 µM | 0.316 µM | Cc1noc(C)c1Cn1cc(N2C(=O)NC(CC3CCCC3)C2=O)cn1 (centres unmarked) [Example 10-58, 5-(cyclopentylmethyl)-3-(1-((3,5-dimethylisoxazol-4-yl)methyl)-1H-pyrazol-4-yl)imidazolidine-2,4-dione] | –
12 | – | 1.7 µM | 1.77 µM | COc1cccc(CNC(=O)CC2NC(=O)N(c3cnn(Cc4c(C)noc4C)c3)C2=O)c1 (centres unmarked) [Example 10-50, 2-(1-(1-((3,5-dimethylisoxazol-4-yl)methyl)-1H-pyrazol-4-yl)-2,5-dioxoimidazolidin-4-yl)-N-(3-methoxybenzyl)acetamide] | –
13 | – | 0.02 µM | – | COc1ccc(CN2C(=O)N(c3cnn(Cc4c(C)noc4C)c3)C(=O)C23CC3)cc1O [Example 12-12, 6-(1-((3,5-dimethylisoxazol-4-yl)methyl)-1H-pyrazol-4-yl)-4-(3-hydroxy-4-methoxybenzyl)-4,6-diazaspiro[2.4]heptane-5,7-dione] | –
14 | – | 1.87 µM | – | COc1cccc(C(=O)Nc2nnn(Cc3c(C)noc3C)n2)c1 [Example 10-39, N-(2-((3,5-dimethylisoxazol-4-yl)methyl)-2H-tetrazol-5-yl)-3-methoxybenzamide] | –
15 | – | 0.72 µM | 0.721 µM | Cc1noc(C)c1Cn1cc(N2C(=O)CN(Cc3cccc(CO)n3)C2=O)cn1 [Example 10-71, 3-(1-((3,5-dimethylisoxazol-4-yl)methyl)-1H-pyrazol-4-yl)-1-((6-(hydroxymethyl)pyridin-2-yl)methyl)imidazolidine-2,4-dione] | –
16 | – | 12.1 µM | – | Cc1noc(C)c1Cn1cnc(NC(=O)c2ccc3c(c2)OCO3)c1 [Example 10-40, N-(1-((3,5-dimethylisoxazol-4-yl)methyl)-1H-imidazol-4-yl)benzo[d][1,3]dioxole-5-carboxamide] | –

Further lines, the molecule ahead of its results:

Row | Compound | IC50 (Table A, read-out: hT2R8 IC50) | IC50 [2] | IC50 [3] | further results
17 | Cc1noc(C)c1Cn1cc(N2C(=O)N(Cc3ccccc3C(=O)O)C(C)(C)C2=O)cn1 [Example 12-91, 2-((3-(1-((3,5-dimethylisoxazol-4-yl)methyl)-1H-pyrazol-4-yl)-5,5-dimethyl-2,4-dioxoimidazolidin-1-yl)methyl)benzoic acid] | – | – | – | IC50 [1]: 4.23 µM
18 | Cc1noc(C)c1Cn1cc(NC(=O)c2ccccc2)cn1 [Example 4-24, N-(1-((3,5-dimethylisoxazol-4-yl)methyl)-1H-pyrazol-4-yl)benzamide] | 2.62 µM | – | – | –
19 | Cc1noc(C)c1Cn1cc(NC(=O)c2ccncc2)cn1 [Example 4-50, N-(1-((3,5-dimethylisoxazol-4-yl)methyl)-1H-pyrazol-4-yl)isonicotinamide] | 4.59 µM | – | – | –
20 | Cc1ccc(CN2C(=O)N(c3cnn(Cc4c(C)noc4C)c3)C(=O)C2(C)C)cc1 [Example 12-81, 3-(1-((3,5-dimethylisoxazol-4-yl)methyl)-1H-pyrazol-4-yl)-5,5-dimethyl-1-(4-methylbenzyl)imidazolidine-2,4-dione] | – | – | – | IC50 [1]: 0.74 µM
21 | Cc1noc(C)c1Cn1cc(NC(=O)c2cc3c(cc2Br)OCCO3)cn1 [Example 4-89, 7-bromo-N-(1-((3,5-dimethylisoxazol-4-yl)methyl)-1H-pyrazol-4-yl)-2,3-dihydrobenzo[b][1,4]dioxine-6-carboxamide] | 0.3 µM | – | – | –
22 | CCC(C(=O)Nc1cnn(Cc2c(C)noc2C)c1)c1ccccc1 (centres unmarked) [Example 4-37, N-(1-((3,5-dimethylisoxazol-4-yl)methyl)-1H-pyrazol-4-yl)-2-phenylbutanamide] | 0.5 µM | – | – | –
23 | COc1cc2c(cc1C(=O)Nc1cnn(Cc3c(C)noc3C)c1)OCCO2 [Example 4-95, N-(1-((3,5-dimethylisoxazol-4-yl)methyl)-1H-pyrazol-4-yl)-7-methoxy-2,3-dihydrobenzo[b][1,4]dioxine-6-carboxamide] | – | 0.7 µM | – | –
24 | Cc1noc(C)c1Cn1cc(N2CCCN(Cc3ccccc3)C2=O)cn1 [Example 9-5] | – | – | 3.43 µM | –
25 | COc1ccc(OC)c(S(=O)(=O)Nc2cnn(Cc3c(C)noc3C)c2)c1 [Example 4-101, N-(1-((3,5-dimethylisoxazol-4-yl)methyl)-1H-pyrazol-4-yl)-2,5-dimethoxybenzenesulfonamide] | 1.63 µM | – | – | –
26 | Cc1noc(C)c1Cn1cc(NC(=O)c2cccnc2)cn1 [Example 4-46, N-(1-((3,5-dimethylisoxazol-4-yl)methyl)-1H-pyrazol-4-yl)nicotinamide] | 1.05 µM | – | – | –
27 | COc1cc(C(=O)Nc2cnn(Cc3c(C)noc3C)c2)ccc1O [Example 4-20, N-(1-((3,5-dimethylisoxazol-4-yl)methyl)-1H-pyrazol-4-yl)-4-hydroxy-3-methoxybenzamide] | 0.48 µM | – | – | –
28 | Cc1noc(C)c1Cn1cc(-n2c(=O)[nH]c(=O)n(CCc3ccccc3)c2=O)cn1 [Example 9-8, 1-(1-((3,5-dimethylisoxazol-4-yl)methyl)-1H-pyrazol-4-yl)-3-phenethyl-1,3,5-triazinane-2,4,6-trione] | – | 3.03 µM | 6.15 µM | –
29 | Cc1c[nH]c(C(=O)Nc2cnn(Cc3c(C)noc3C)c2)c1 [Example 4-45, N-(1-((3,5-dimethylisoxazol-4-yl)methyl)-1H-pyrazol-4-yl)-4-methyl-1H-pyrrole-2-carboxamide] | 0.72 µM | – | – | –
30 | Cc1noc(C)c1Cn1cc(N2C(=O)N(CCc3ccccc3)C(C)(C)C2=O)cn1 [Example 12-56, 3-(1-((3,5-dimethylisoxazol-4-yl)methyl)-1H-pyrazol-4-yl)-5,5-dimethyl-1-phenethylimidazolidine-2,4-dione] | – | – | – | IC50 [1]: 0.23 µM
31 | Cc1noc(C)c1Cn1cc(N2C(=O)N(Cc3ccccc3O)C(C)(C)C2=O)cn1 [Example 12-39, 3-(1-((3,5-dimethylisoxazol-4-yl)methyl)-1H-pyrazol-4-yl)-1-(2-hydroxybenzyl)-5,5-dimethylimidazolidine-2,4-dione] | – | – | – | IC50 [1]: 0.07 µM
32 | Cc1noc(C)c1Cn1cc(N2C(=O)N(Cc3cccc(F)c3F)C(C)(C)C2=O)cn1 [Example 12-66, 1-(2,3-difluorobenzyl)-3-(1-((3,5-dimethylisoxazol-4-yl)methyl)-1H-pyrazol-4-yl)-5,5-dimethylimidazolidine-2,4-dione] | – | – | – | IC50 [1]: 0.31 µM
33 | COc1ccccc1NC(=S)Nc1cnn(Cc2c(C)noc2C)c1 [Example 4-106, 1-(1-((3,5-dimethylisoxazol-4-yl)methyl)-1H-pyrazol-4-yl)-3-(2-methoxyphenyl)thiourea] | 2.61 µM | – | – | –
34 | COc1ccc(CN2C(=O)N(c3cnn(Cc4c(C)noc4C)c3)C(=O)C2(C)C)nc1 [Example 12-51, 3-(1-((3,5-dimethylisoxazol-4-yl)methyl)-1H-pyrazol-4-yl)-1-((5-methoxypyridin-2-yl)methyl)-5,5-dimethylimidazolidine-2,4-dione] | – | – | – | IC50 [1]: 0.19 µM
35 | CCOc1cccc(C(=O)Nc2cnn(Cc3c(C)noc3C)c2)c1 [Example 4-59, N-(1-((3,5-dimethylisoxazol-4-yl)methyl)-1H-pyrazol-4-yl)-3-ethoxybenzamide] | 0.22 µM | – | – | –
36 | COc1cc(CC(=O)Nc2cnn(Cc3c(C)noc3C)c2)cc(OC)c1 [Example 4-32, 2-(3,5-dimethoxyphenyl)-N-(1-((3,5-dimethylisoxazol-4-yl)methyl)-1H-pyrazol-4-yl)acetamide] | 0.96 µM | – | – | –
